Test results taken from patent US20260234157A1, “COMPOUND AND METHOD FOR TARGETED DEGRADATION OF ANDROGEN RECEPTOR” (Gan & Lee Pharmaceuticals Co., Ltd., priority 2023, published 2026).
Where a chain is given by its changes, count along the chain named. Like-named read-outs stand apart in the source and are kept apart here.

Key:
[1] = target: T1, AR protein (Homo sapiens, UniProt P10275, T878A); assay: Degradation of AR protein in LNCaP cells (Western blot); format: cell-based; details: for inhibition at 0.01 µM: read-out: Degradation rates of the AR protein in LNCaP cells, 10 nM (%); for inhibition at 0.1 µM: read-out: Degradation rates of the AR protein in LNCaP cells, 100 nM (%)
T1 construct: degradation activity of the compounds disclosed in the present disclosure on AR protein in LNCaP cells; host or cells: LNCaP FGC
T1 sequence (P10275 1-920 T878A): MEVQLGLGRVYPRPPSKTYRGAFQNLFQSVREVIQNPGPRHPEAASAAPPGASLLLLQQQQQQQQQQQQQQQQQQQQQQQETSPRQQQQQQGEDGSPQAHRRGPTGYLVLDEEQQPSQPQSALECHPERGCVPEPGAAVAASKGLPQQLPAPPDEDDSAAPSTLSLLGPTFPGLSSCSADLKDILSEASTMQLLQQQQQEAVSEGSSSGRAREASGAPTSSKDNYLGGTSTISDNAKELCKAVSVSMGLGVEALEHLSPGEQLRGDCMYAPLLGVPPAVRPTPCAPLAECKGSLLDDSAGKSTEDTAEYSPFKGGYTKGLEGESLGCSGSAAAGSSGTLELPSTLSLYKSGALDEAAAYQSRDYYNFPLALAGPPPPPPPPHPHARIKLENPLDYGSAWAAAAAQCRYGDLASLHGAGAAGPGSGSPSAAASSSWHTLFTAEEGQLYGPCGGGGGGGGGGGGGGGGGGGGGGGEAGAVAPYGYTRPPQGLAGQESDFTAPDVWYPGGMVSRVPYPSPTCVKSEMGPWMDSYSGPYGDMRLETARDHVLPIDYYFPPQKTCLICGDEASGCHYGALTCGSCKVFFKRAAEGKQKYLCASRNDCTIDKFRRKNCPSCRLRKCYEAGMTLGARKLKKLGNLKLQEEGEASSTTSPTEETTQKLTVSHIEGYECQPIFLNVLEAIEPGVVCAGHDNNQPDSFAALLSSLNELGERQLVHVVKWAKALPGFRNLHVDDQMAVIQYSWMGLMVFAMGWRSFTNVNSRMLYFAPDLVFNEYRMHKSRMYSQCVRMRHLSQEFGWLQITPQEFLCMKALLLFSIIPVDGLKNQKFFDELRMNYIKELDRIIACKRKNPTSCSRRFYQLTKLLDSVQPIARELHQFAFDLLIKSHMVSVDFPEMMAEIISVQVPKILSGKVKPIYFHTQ
Procedure: The degradation activity of the compounds disclosed in the present disclosure on AR protein in LNCaP cells (cell source: ATCC)
(§1) Corresponding solvent controls were also set and cultured for 8 hours. After 8 hours of cultivation, the culture medium was removed and the cells were washed with PBS. RIPA lysis buffer containing 1% Protease Inhibitor Cocktail was added, and the total protein extract was obtained by lysis and centrifugation. The protein concentration in the extract was detected by BCA method. Protein electrophoresis was performed using SDS-PAGE, followed by transfer of the protein onto a PVDF (Millipore Sigma catalog No. PSRP010R5) membrane at 100V constant voltage for 60 minutes. The PVDF membrane was then placed in a 1×TBST solution with 5% milk and blocked at room temperature for 1 hour. […] The primary antibody solution was discarded and the PVDF membrane was washed three times with 1×TBST for 5 minutes/time. […] The secondary antibody solution was discarded and the PVDF membrane was washed three times with 1×TBST for 5 minutes/time. Western blot imaging was performed by using a dual color infrared laser imaging system (Licor catalog No. Odyssey CLX). Bands were analyzed in grayscale using Image Studio software. For each sample, GAPDH protein bands were detected as internal reference. The degradation rates of the AR protein for the compounds and the positive control sample were calculated based on grayscale of the protein bands.

[2] = target: T2, AR protein (Homo sapiens, UniProt P10275); assay: Degradation of AR protein in VCaP cells (Western blot); format: cell-based; details: 8 hours; for inhibition at 0.01 µM: read-out: Degradation rate of the AR protein in VCaP cells, 10 nM (%); for inhibition at 0.1 µM: read-out: Degradation rate of the AR protein in VCaP cells, 100 nM (%)
T2 construct: degradation activity of the compounds disclosed in the present disclosure on AR protein in VCaP cells; host or cells: VCaP
T2 sequence (P10275 1-920): T1 sequence (P10275 1-920 T878A) with A878T
Procedure: The degradation activity of the compounds disclosed in the present disclosure on AR protein in VCaP cells (cell source: ATCC)
as §1

[3] = LNCaP cells, compound 10 nM, 8 hours, Western blot grayscale, GAPDH internal reference
[4] = LNCaP cells, compound 100 nM, 8 hours, Western blot grayscale, GAPDH internal reference

| Degradation rate of the AR protein in VCaP cells, 10 nM (%) ([2]; compound at 10 nM) | Degradation rate of the AR protein in VCaP cells, 100 nM (%) ([2]; compound at 100 nM) | Structure (SMILES) | inhibition at 0.01 µM [1, 3] [%] | inhibition at 0.1 µM [1, 4] [%] | inhibition at 0.01 µM ([2]; compound at 10 nM) [%] | inhibition at 0.1 µM ([2]; compound at 100 nM) [%] | inhibition at 0.01 µM ([1]; LNCaP, 8 h) [%] | inhibition at 0.1 µM ([1]; LNCaP, 8 h) [%] |
| --- | --- | --- | --- | --- | --- | --- | --- | --- |
|  |  | N#Cc1ccc(O[C@H]2CC[C@H](NC(=O)c3ccc(N4CCC(C#N)(CN5CCC6(CC5)COc5c6ccc6c5CN(C5CCC(=O)NC5=O)C6=O)CC4)nn3)CC2)cc1Cl (some centres unmarked) [Compound 156] | 52 | 53 | 37 | 75 |  |  |
|  |  | N#Cc1ccc(O[C@H]2CC[C@H](NC(=O)c3ccc(N4CCC5(CC4)CC(N4CCC6(CC4)COc4c6ccc6c4CN(C4CCC(=O)NC4=O)C6=O)C5)nn3)CC2)cc1Cl (some centres unmarked) [Compound 184] | 79 | 41 |  |  |  |  |
|  |  | N#Cc1ccc(O[C@H]2CC[C@H](NC(=O)c3ccc(N4CCC(N5CCC6(CC5)COc5c6ccc6c5CN(C5CCC(=O)NC5=O)C6=O)CC4)nn3)CC2)cc1Cl (some centres unmarked) [Compound 169] |  |  | 79 | 82 | 75 | 53 |
|  |  | CC1(CN2CCC3(CC2)COc2c3ccc3c2CN(C2CCC(=O)NC2=O)C3=O)CCN(c2ncc(C(=O)N[C@H]3CC[C@H](Oc4ccc(C#N)c(Cl)c4)CC3)cn2)CC1 (some centres unmarked) [Compound 193] | 18 | 31 | 21 | 78 |  |  |
|  |  | N#Cc1ccc(O[C@H]2CC[C@H](NC(=O)c3ccc(N4CC(N5CCC6(CC5)Cc5cc7c(cc5O6)C(=O)N(C5CCC(=O)NC5=O)C7=O)C4)nn3)CC2)cc1Cl (some centres unmarked) [Compound 79] |  |  | 36 | 42 | 23 | 28 |
|  |  | COc1cc(O[C@H]2CC[C@H](NC(=O)c3ccc(N4CCC(C)(CN5CCC6(CC5)COc5c6ccc6c5C(=O)N(C5CCC(=O)NC5=O)C6=O)CC4)nn3)CC2)ccc1C#N (some centres unmarked) [Compound 180] | 12 | 53 | 29 | 73 |  |  |
|  |  | N#Cc1ccc(O[C@H]2CC[C@H](NC(=O)c3cnc(N4CCC5(CC4)COc4c5ccc5c4CN(C4CCC(=O)NC4=O)C5=O)nc3)CC2)cc1Cl (some centres unmarked) [Compound 201] | 6 | 32 | -11 | 32 |  |  |
|  |  | N#Cc1ccc(O[C@H]2CC[C@H](NC(=O)c3cnc(N4CCC(F)(CN5CCC6(CC5)COc5c6ccc6c5CN(C5CCC(=O)NC5=O)C6=O)CC4)nc3)CC2)cc1Cl (some centres unmarked) [Compound 158] | 43 | 37 | 62 | 81 |  |  |
|  |  | N#Cc1ccc(O[C@H]2CC[C@H](NC(=O)c3ccc(N4CCC(N5CC(N6CCC7(CC6)COc6c7ccc7c6CN(C6CCC(=O)NC6=O)C7=O)C5)CC4)nn3)CC2)cc1Cl (some centres unmarked) [Compound 144] | 68 | 39 | 82 | 86 |  |  |
|  |  | N#Cc1ccc(O[C@H]2CC[C@H](NC(=O)c3ccc(N4CC(N5CCC6(CCc7cc8c(cc7O6)CN(C6CCC(=O)NC6=O)C8=O)CC5)C4)nn3)CC2)cc1Cl (some centres unmarked) [Compound 42] |  |  | 45 | 33 | 29 | 49 |
|  |  | N#Cc1ccc(O[C@H]2CC[C@H](NC(=O)c3ccc(N4CC(N5CCC6(CC5)COc5c6ccc6c5CN(C5CCC(=O)NC5=O)C6=O)C4)nn3)CC2)cc1Cl (some centres unmarked) [Compound 183] |  |  | 75 | 84 | 40 | 51 |
|  |  | N#Cc1ccc(O[C@H]2CC[C@H](NC(=O)c3ccc(N4CC5(CCC(N6CCC7(CC6)COc6c7ccc7c6CN(C6CCC(=O)NC6=O)C7=O)CC5)C4)nn3)CC2)cc1Cl (some centres unmarked) [Compound 168] | 70 | 26 | 76 | 77 |  |  |
|  |  | N#Cc1ccc(O[C@H]2CC[C@H](NC(=O)c3ccc(N4CCC(CN5CC6(CCc7cc8c(cc7O6)C(=O)N(C6CCC(=O)NC6=O)C8=O)C5)CC4)nn3)CC2)cc1Cl (some centres unmarked) [Compound 1] | 44 | 82 | 65 | 79 |  |  |
|  |  | COC1(CN2CC3(CCc4cc5c(cc4O3)C(=O)N(C3CCC(=O)NC3=O)C5)C2)CCN(c2ccc(C(=O)N[C@H]3CC[C@H](Oc4ccc(C#N)c(Cl)c4)CC3)nn2)CC1 (some centres unmarked) [Compound 9] | 56 | 66 | 87 | 82 |  |  |
|  |  | N#Cc1ccc(O[C@H]2CC[C@H](NC(=O)c3ccc(N4CCC(CN5CCC6(CC5)COc5cc7c(cc5O6)CN(C5CCC(=O)NC5=O)C7=O)CC4)nn3)CC2)cc1Cl (some centres unmarked) [Compound 76] | 74 | 74 | 84 | 76 |  |  |
|  |  | N#Cc1ccc(O[C@H]2CC[C@H](NC(=O)c3cnc(N4CCC(F)(CN5CCC6(CC5)COc5c6ccc6c5CN(C5CCC(=O)NC5=O)C6=O)CC4)cn3)CC2)cc1Cl (some centres unmarked) [Compound 157] | 51 | 52 | 46 | 84 |  |  |
|  |  | CCOC1(CN2CCC3(CC2)COc2c3ccc3c2CN(C2CCC(=O)NC2=O)C3=O)CCN(c2ccc(C(=O)N[C@H]3CC[C@H](Oc4ccc(C#N)c(Cl)c4)CC3)nn2)CC1 (some centres unmarked) [Compound 155] | 29 | 1 | 58 | 80 |  |  |
| −14 | 38 | N#Cc1ccc(O[C@H]2CC[C@H](NC(=O)c3ccc(N4CC5(CC(N6CCC7(CC6)COc6c7ccc7c6C(=O)N(C6CCC(=O)NC6=O)C7=O)C5)C4)nn3)CC2)cc1Cl (some centres unmarked) [Compound 140] |  |  |  |  |  |  |
